# According to patent publication US20050233405A1, “Inhibitors of caspase-3-mediated cleavage of essential ventricular myosin light chain” (ProCorde GmbH, priority 2002, published 2005):
# *: point of attachment. pNA = O=[N+]([O-])c1ccc(N*)cc1; AMC = Cc1cc(=O)oc2cc(N*)ccc12
# T1: caspase-3 (Homo sapiens, UniProt P42574)
# T1 sequence (P42574 29-175 limits assumed): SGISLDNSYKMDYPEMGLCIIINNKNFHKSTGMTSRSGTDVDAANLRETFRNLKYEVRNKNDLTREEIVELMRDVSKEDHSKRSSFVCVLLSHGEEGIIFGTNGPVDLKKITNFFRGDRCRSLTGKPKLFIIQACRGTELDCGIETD
# T1 sequence (P42574 176-277 limits assumed): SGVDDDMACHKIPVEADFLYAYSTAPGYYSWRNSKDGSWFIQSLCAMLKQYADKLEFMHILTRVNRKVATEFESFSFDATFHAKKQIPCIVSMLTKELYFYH
# T2: caspase-7 (Homo sapiens, UniProt P55210)
# T2 sequence (P55210 24-198 limits assumed): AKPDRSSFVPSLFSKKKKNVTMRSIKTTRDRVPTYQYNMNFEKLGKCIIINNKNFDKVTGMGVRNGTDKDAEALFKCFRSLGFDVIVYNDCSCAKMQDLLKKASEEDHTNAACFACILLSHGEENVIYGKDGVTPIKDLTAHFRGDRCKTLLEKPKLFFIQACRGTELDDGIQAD
# T2 sequence (P55210 207-303 limits assumed): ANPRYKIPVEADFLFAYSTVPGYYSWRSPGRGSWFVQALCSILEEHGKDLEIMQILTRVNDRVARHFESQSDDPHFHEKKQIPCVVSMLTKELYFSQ
# T3: recombinant human caspase-3 (CPP32) (Homo sapiens, UniProt P42574)
# T3 construct: purified, active recombinant human caspase-3 (CPP32); purchased BD Biosciences Pharmingen, Heidelberg, Germany
# T3 sequence (P42574 29-175 limits assumed): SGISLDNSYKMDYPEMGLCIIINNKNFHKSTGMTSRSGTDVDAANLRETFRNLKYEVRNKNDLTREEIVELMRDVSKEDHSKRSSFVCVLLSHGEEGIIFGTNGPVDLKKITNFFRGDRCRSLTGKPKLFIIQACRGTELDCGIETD
# T3 sequence (P42574 176-277 limits assumed): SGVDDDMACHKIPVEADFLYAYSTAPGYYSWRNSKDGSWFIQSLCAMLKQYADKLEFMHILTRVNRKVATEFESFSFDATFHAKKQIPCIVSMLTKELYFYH
# T4: calpain-I (Homo sapiens, UniProt P07384)
# T4 sequence (P07384 1-714): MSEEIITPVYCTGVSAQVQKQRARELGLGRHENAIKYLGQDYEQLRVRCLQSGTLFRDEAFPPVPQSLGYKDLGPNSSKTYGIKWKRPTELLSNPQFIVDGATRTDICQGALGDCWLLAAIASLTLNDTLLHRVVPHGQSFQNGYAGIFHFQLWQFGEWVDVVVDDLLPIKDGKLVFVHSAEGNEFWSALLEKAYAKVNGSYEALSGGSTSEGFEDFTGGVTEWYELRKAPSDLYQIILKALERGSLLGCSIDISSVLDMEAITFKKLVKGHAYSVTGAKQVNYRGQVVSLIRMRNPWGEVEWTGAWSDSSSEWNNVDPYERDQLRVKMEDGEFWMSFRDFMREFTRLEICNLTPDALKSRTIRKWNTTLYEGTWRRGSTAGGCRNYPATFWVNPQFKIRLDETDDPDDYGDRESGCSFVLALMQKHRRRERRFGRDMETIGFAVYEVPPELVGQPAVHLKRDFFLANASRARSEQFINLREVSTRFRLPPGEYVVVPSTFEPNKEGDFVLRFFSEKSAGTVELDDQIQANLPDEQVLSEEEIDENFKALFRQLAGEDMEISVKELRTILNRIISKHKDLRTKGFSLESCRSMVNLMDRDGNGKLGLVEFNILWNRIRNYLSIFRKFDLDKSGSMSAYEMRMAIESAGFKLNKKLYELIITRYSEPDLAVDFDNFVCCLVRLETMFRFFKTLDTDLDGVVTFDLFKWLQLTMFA
# T4 sequence (P04632 1-268 partner): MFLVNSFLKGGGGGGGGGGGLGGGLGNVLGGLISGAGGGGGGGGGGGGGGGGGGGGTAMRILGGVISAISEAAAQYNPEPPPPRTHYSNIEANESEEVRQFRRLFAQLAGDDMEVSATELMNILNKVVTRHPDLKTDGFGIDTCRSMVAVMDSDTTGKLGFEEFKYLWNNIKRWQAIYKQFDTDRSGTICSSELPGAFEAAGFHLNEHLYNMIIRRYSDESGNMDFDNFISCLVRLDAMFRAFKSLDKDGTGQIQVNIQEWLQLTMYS
# Experiments:
# caspase-3 = biological target: T1, caspase-3; details: chromogenic peptide substrates; J Biol Chem. 1997 Apr 11; 272(15):9677-82; cited from earlier work
# caspase-7 = biological target: T2, caspase-7; test: Fluorimetric peptide substrate cleavage assay, caspase-7; type: biochemical; details: for cleavage of peptide substrate by caspase-7: fluorimetric in vitro assay
# Text: (§1) FIG. 8: Effect of different proteases—other caspases and calpain—on cleavage of the peptide substrate Ac-DFVE-AMC. The 1/KM-value for caspase-3 was normalized to 1, and 1/KM-values of other caspases/proteases are shown in relation to that value. […] The functional proteolytic activity of all proteases used was confirmed with the typical peptide substrate of each protease.
# To this end, fluorimetric in vitro assays using the specific cleavage sites coupled to indicator dyes were established. Caspase-3 and the structurally almost identical caspase-7 (Wei et al., 2000) cleaved both substrates, DEVD and DFVE, with a highly reproducible Michaelis-Menten kinetic. […] We measured a KM-value for DEVD which compared well to existing literature data (Table 1), whereas the KM-value for DFVE was in the range of some other rare substrates of caspase-3 (Table 1). This differential substrate affinity allows to screen for specific inhibitors of vMLC1 cleavage, which would, however, not affect the cleavage of most other known substrates of caspase-3 and 7.
# (§2) As p35 inhibits all effector caspases (subtypes 1,3,6,7,8 and 10; e.g., Zhou et al., Biochemistry 1998; 37:10757), our concern was whether the observed beneficial effects of p35 in heart failure were really due to inhibition of caspase-3 and of the structurally almost identical caspase-7. Especially, we sought to exclude that the decrease in vMLC1 cleavage in the presence of p35 was due to predominant inhibition of a different caspase, and to exclude that the cleavage of vMLC1 was induced by caspase-3 only indirectly acting via other effector caspases. Therefore, we tested all these enzymes for their capacity to cleave Ac-DFVE-AMC. […] However, the highly homologous caspase-7 cleaved the new substrate DFVE with almost 1 log scale lower affinity compared to caspase-3.
# [1] = biological target: T3, recombinant human caspase-3 (CPP32); test: Fluorimetric peptide substrate cleavage assay, caspase-3; type: biochemical; details: fluorimetric in vitro assay
# Experimental: The rate of caspase-3 enzyme activity could be measured by enzymatic cleavage and release of AMC from the Ac-DEVD-AMC caspase substrate (Biosyntan, Berlin, Germany). This parameter was measured as emission at 460 nm upon excitation at 380 nm using U.V. spectrofluorometry.
# Ac-DFVE-AMC was synthesized by Biosyntan, Berlin, Germany, with a purity of 93.5%. The peptide lyophilised as trifluoracetic acid salt was reconstituted in DMSO to 100 mM. 5 μg of purified, active recombinant human caspase-3 (CPP32) from BD Biosciences Pharmingen, Heidelberg, Germany, were diluted in 100 μl 50 mM Tris, pH 8.0, with 100 mM NaCl, 50 mM imidazole.
# The reaction buffer contained 20 mM HEPES, 100 mM NaCl, 10 mM DTT, 1 mM EDTA, 0.1 % (w/v) CHAPS, 10% sucrose, pH 7.2 and the indicated concentrations of Ac-DFVE-AMC. Caspase-3 was added to reaction mixture at a final concentration of 3 nM.
# After preincubation for 10 min at 37° C., the released fluorogenic AMC was monitored every second minute for 20 min in a spectrofluorometer at an excitation wavelength of 380 nm and an emission wavelength of 460 nm.
# Initial velocities and substrate concentrations were fit by non linear regression to the Michaelis-Menten equation. Lineweaver-Burk plots were calculated.
# calpain-I = biological target: T4, calpain-I; test: Ac-DFVE-AMC cleavage by calpain-I; type: biochemical; details: physiological substrate concentrations
# Text: as §1, §2
# other caspases = test: Ac-DFVE-AMC cleavage by other caspases; type: biochemical; details: physiological substrate concentrations
# Text: as §1, §2
# [2] = system: caspase-3 activation in failing myocardium; details: rabbit CHF, rapid ventricular pacing; Laugwitz et al., 2001; cited from earlier work
molecule,measurement,setting,value
Ac-DQMD-pNA,Km,caspase-3,44 µM
Ac-YEVD-pNA,Km,caspase-3,370 µM
Ac-DFVE-{AMC},cleavage of peptide substrate by caspase-7,caspase-7,can specifically cleave
same,"affinity of caspase-7 for the substrate, lower compared to caspase-3",caspase-7; relative to caspase-3,~1 log scale
same,cleavage of peptide substrate by caspase-3,[1],can specifically cleave
same,cleavage of substrate by calpain-I,calpain-I,no cleavage was detectable
same,cleavage of substrate by other caspases,other caspases,no cleavage was detectable
Ac-VQVD-pNA,Km,caspase-3,510 µM
Ac-VEID-pNA,Km,caspase-3,250 µM
Ac-DEVD-AMC,cleavage of peptide substrate by caspase-7,caspase-7,cleaved
same,cleavage of peptide substrate by caspase-3,[1],cleaved
Ac-VDVAD-pNA,Km,caspase-3,67 µM
Ac-DEVD-pNA,Km,caspase-3,11 µM
"p35: potent caspase inhibitor p35, given by adenovirus-mediated gene delivery (protein, UniProt P08160 1-299, looked up, adenovirus-delivered) Early 35 kDa protein: MCVIFPVEIDVSQTIIRDCQVDKQTRELVYINKIMNTQLTKPVLMMFNISGPIRSVTRKNNNLRDRIKSKVDEQFDQLERDYSDQMDGFHDSIKYFKDEHYSVSCQNGSVLKSKFAKILKSHDYTDKKSIEAYEKYCLPKLVDERNDYYVAVCVLKPGFENGSNQVLSFEYNPIGNKVIVPFAHEINDTGLYEYDVVAYVDSVQFDGEQFEEFVQSLILPSSFKNSEKVLYYNEASKNKSMIYKALEFTTESSWGKSEKYNWKIFCNGFIYDKKSKVLYVKLHNVTSALNKNVILNTIK",effect of in vivo transcoronary gene delivery in failing myocardium,[2],positive impact on sarcomeric organization and contractile performance
